Consider one compound from patent US20050239872A1, “1,5-distributed pyrrolid-2-one derivatives for use as ep4 receptor agonists in the teatment of eye diseases such as glaucoma” (priority 2002, published 2005).

Data set [1] is described as follows: Oral pharmacokinetics in rats. The data set is classed as in vivo.
Data set [2] has as its system more than 80 receptors and enzymes. In words: PanLab screening against more than 80 receptors and enzymes. The settings on record: concentrations greater than 10 μM.

As to `O=C1CC[C@H](/C=C/C(O)C(F)(F)c2ccccc2)N1CCCCCCc1nnn[nH]1` (stereo partly drawn) [Compound 7, (5R)-5[(1E)-4,4-difluoro-3-hydroxy-4-phenylbut-1-enyl]-1-[6-(1H-tetraazol-5-yl)hexyl]pyrrolidin-2-one], the “terminal elimination half life” value in data set [1] is recorded as “good”. Further, the oral bioavailability result in data set [1] (oral) was “good”. Moreover, the “activity in PanLab screening” value in data set [2] is “no significant activities”.
